Source: paper PMC10970593, “Jozimine A2, a Dimeric Naphthylisoquinoline (NIQ) Alkaloid, Shows In Vitro Cytotoxic Effects against Leukemia Cells through NF-κB Inhibition” (International Journal of Molecular Sciences, 2024)
Like-named read-outs stand apart in the source and are kept apart here.

Target: T1, NF-κB (human recombinant; p65 subunit used in docking) (Homo sapiens, UniProt Q04206)
T1 construct: gene RELA; human recombinant NF-κB protein, Sino Biological cat; No. 12054-H09E
Assay: microscale thermophoresis with labeled recombinant protein
Format: binding

Kd (read-out: Kd) [nM]	Structure (SMILES)	Kd [nM]
1660 ± 12	COc1cccc2c(-c3ccc4c(c3O)[C@@H](C)N[C@H](C)C4)c(C)c(-c3c(C)c(-c4ccc5c(c4O)[C@@H](C)N[C@H](C)C5)c4cccc(OC)c4c3O)c(O)c12 [jozimine A2]	
	COc1cc(C)cc2c(-c3c(O)cc(O)c4c3C[C@@H](C)N[C@@H]4C)cc(-c3cc(-c4c(O)cc(O)c5c4C[C@@H](C)N[C@@H]5C)c4cc(C)cc(OC)c4c3O)c(O)c12 [michellamine B]	2800 ± 94
